According to US20250188492A1, “Enhanced Transfer of Genetic Instructions to Effector Immune Cells” (Janssen Biotech, Inc., priority 2022, published 2025):

How the values were obtained:
Type in all cases: cell-based
LDLR = LDLR expression of primary γδ T cells pre-treated with statin; settings: different concentrations, compared to lentiviral vector only-transduced cells, FIGS. 10A-10B
Experimental: (§1) Next, the effect of pre-treatment with statin in lentiviral transduction of primary γδ T cells on LDLR expression was evaluated. Three primary γδ T cells samples from healthy donors were expanded with Zol for five days, pre-treated in the presence or absence of Rosuvastatin and Atorvastatin at different concentrations, as described above, and evaluated for LDLR expression.

primary γδ T cells = assay: Frequency of Vγ9Vδ2 subset of primary γδ T cells pre-treated with statin (flow cytometry); settings: different concentrations, compared to lentiviral vector only at 0 statin concentration, FIGS. 11A-11B
Experimental: as §1, with “on the frequency of Vγ9Vδ2 T cell subset within the γδ T cells” for “on LDLR expression”, “Rosuvastatin or” for “Rosuvastatin and”, “for Vγ9Vδ2 expression, using flow cytometry.” for “for LDLR expression.”

primary NK cells [1] = assay: Surface CAR expression of primary NK cells transduced with Antigen-1 CAR lentivirus with or without PDK1 inhibitor (flow cytometry); settings: BX795 0.5 to 7.5 μM, compared to cells transduced without BX795, n=2, FIGS. 2B-2C
Experimental: NK cells were first activated in preparation of the transduction. One day 0, 0.5-1×10^6 NK cells per well were distributed in a 24-well plate.
Loaded Anti-Biotin MACSiBead particles (Miltenyi Biotech, Cat #130-094-483) for NK cell activation were resuspended thoroughly and were transferred to a suitable tube at the amount of 5 μL (5×10^5 loaded Anti-Biotin MACSiBead particles) per 1×10^6 NK cells. 100 μL culture medium was added to the loaded Anti-Biotin MACSiBead particles. The mixture was centrifuged at 300×g for 5 minutes so that the beads were washed prior to being added to the plated NK cells. […]
Lentiviral transduction was performed on day 5 or 6. […] The amount of virus needed for transducing cells was determined based on desired multiplicity of infection (MOI). […]
Cells were monitored as early as day 3-4 post transduction for surface CAR expression. The cell number of NK cells was determined. […] The CAR expression on NK cells was then measured using flow cytometry analysis.
To test whether PDK1 inhibitors can improve CAR transduction efficiency or surface CAR stability, primary NK cells were activated and transduced with a Antigen-1 CAR in the presence or absence of an PDK1 inhibitor, BX795 (InvivoGen, cat #tlrl-bx7), at concentrations varying from 0.5 to 7.5 μM. […] Surface CAR expression was monitored at regular intervals using an anti-myc tag AF647 antibody (Cell Signaling, Cat #2233, 1:200).

primary NK cells [2] = assay: Antigen-2 CAR expression of primary NK cells transduced after statin pre-treatment; settings: primary NK cells pre-treated with 5 μM, MOI of 5, FIG. 3B
Experimental: Lentiviral transduction was performed on day 5 or 6. NK cells were resuspended to determine if cell number had changed from day 0. Lentiviral particles were thawed on ice. Once thawed, lentiviral particles were taken out from ice and equilibrated to room temperature before being added to the activated NK cells. The amount of virus needed for transducing cells was determined based on desired multiplicity of infection (MOI). Once the NK cells were transduced with lentiviral particles, they were returned to the incubator at 37° C. and 5% CO2.
Cells were monitored as early as day 3-4 post transduction for surface CAR expression. The cell number of NK cells was determined. 1×10^5 NK cells were collected from each sample and transferred into wells of a microtiter plate. The cells in each well of the microtiter plate were washed twice with 200 μL FACS Buffer each time. The wells were stained with 100 μL staining buffer containing appropriate CAR detection antibodies. The plate was incubated for at least 30 minutes at 4° C. without light. The cells were then washed twice with 150 μL FACS Buffer each time and were centrifuged at 400×g for 4 minutes at room temperature. The CAR expression on NK cells was then measured using flow cytometry analysis. […]

[3] = test system: low-density lipoprotein receptor (LDLR); assay: LDLR expression on primary NK cells after statin pre-treatment during activation; settings: 5 μM during activation, DMSO negative control, n=3, FIG. 3A
Experimental: To test whether statins can improve CAR transduction efficiency or surface CAR stability, cells were pre-treated with 5 μM Rosuvastatin (Cayman Chemical, cat #12029) during the activation prior to the transduction. Then, activated primary NK cells were transduced with a Antigen-2 CAR at MOI of 5. Cells pre-treated with DMSO were included as a negative control.

| Structure (SMILES) | LDLR expression (LDLR) | frequency of Vγ9Vδ2 cells (primary γδ T cells) | surface CAR stability (primary NK cells [1]) | Antigen-2 CAR expression (primary NK cells [2]) | LDLR expression on the cells [3] |
| --- | --- | --- | --- | --- | --- |
| CC(C)c1c(C(=O)Nc2ccccc2)c(-c2ccccc2)c(-c2ccc(F)cc2)n1CC[C@@H](O)C[C@@H](O)CC(=O)O [Atorvastatin] | increased the LDLR expression | did not change the frequency of Vγ9Vδ2 cells | – | – | – |
| O=C(NCCCNc1nc(Nc2cccc(NC(=O)N3CCCC3)c2)ncc1I)c1cccs1 [BX795] | – | – | improved surface CAR stability in a dose dependent manner | – | – |
| CC(C)c1nc(N(C)S(C)(=O)=O)nc(-c2ccc(F)cc2)c1/C=C/[C@@H](O)C[C@@H](O)CC(=O)O [Rosuvastatin] | increased the LDLR expression | did not change the frequency of Vγ9Vδ2 cells | – | increased Antigen-2 CAR expression | increased levels of LDLR expression |
